# Measured values from ChEMBL document CHEMBL3045937, “Synthesis and hypoglycemic activity evaluation of 7-alkoxyl-rhein” (2012).
# Assays:
# Homo sapiens = species on record: Homo sapiens; experiment: Inhibition of alpha-glucoamylase (unknown origin) assessed as 1-Ki/Kc X 100% at 100 mg/l after 10 min spectrophotometry
# [1] = Inhibition of alpha-glucoamylase (unknown origin) assessed as Ki/Kc at 100 mg/l after 10 min spectrophotometry; values are per cent of control; details: Homo sapiens
# Mus musculus [2] = experiment: Hypoglycemic activity in alloxan-induced diabetic Mus musculus (mouse) assessed as blood glucose level at 10 mg/kg, qd for 14 days measured on 7th day (reference value: 19.79 +/- 1.28 mmol/l); format: functional
# Mus musculus [3] = experiment: Hypoglycemic activity in alloxan-induced diabetic Mus musculus (mouse) assessed as blood glucose level at 10 mg/kg, qd for 14 days measured on 14th day (reference value: 19.04 +/- 1.27 mmol/l); format: functional
# Mus musculus [4] = experiment: Hypoglycemic activity in alloxan-induced diabetic Mus musculus (mouse) assessed as blood glucose level at 20 mg/kg, qd for 14 days measured on 7th day (reference value: 19.79 +/- 1.28 mmol/l); format: functional
# Mus musculus [5] = experiment: Hypoglycemic activity in alloxan-induced diabetic Mus musculus (mouse) assessed as blood glucose level at 50 mg/kg, qd for 14 days measured on 14th day (reference value: 19.04 +/- 1.27 mmol/l); format: functional
# Mus musculus [6] = experiment: Hypoglycemic activity in alloxan-induced diabetic Mus musculus (mouse) assessed as blood glucose level at 20 mg/kg, qd for 14 days measured on 14th day (reference value: 19.04 +/- 1.27 mmol/l); format: functional
# Mus musculus [7] = experiment: Hypoglycemic activity in alloxan-induced diabetic Mus musculus (mouse) assessed as blood glucose level at 50 mg/kg, qd for 14 days measured on 7th day (reference value: 19.79 +/- 1.28 mmol/l); format: functional
smiles,measurement,setting,value
Cc1cc(O)c2c(c1)C(=O)c1cc(O)cc(O)c1C2=O,inhibition,Homo sapiens,23.6%
same,residual activity,[1],76.4%
CCCCCCCCCCCCOc1cc(O)c2c(c1)C(=O)c1cc(C(=O)O)cc(O)c1C2=O,inhibition,Homo sapiens,50.7%
same,residual activity,[1],49.3%
CCCCCCOc1cc(O)c2c(c1)C(=O)c1cc(C(=O)O)cc(O)c1C2=O,inhibition,Homo sapiens,54.5%
same,residual activity,[1],45.5%
C[C@H]1O[C@H](O[C@H]2[C@H](O)[C@@H](O)[C@@H](O[C@H]3[C@H](O)[C@@H](O)C(O)O[C@@H]3CO)O[C@@H]2CO)[C@H](O)[C@@H](O)[C@@H]1N[C@H]1C=C(CO)[C@@H](O)[C@H](O)[C@H]1O (some centres not stated) [ACARBOSE],Activity,Mus musculus [2],10.58 mmol/L
same,inhibition,Homo sapiens,91.4%
same,Activity,Mus musculus [3],6.87 mmol/L
same,residual activity,[1],8.6%
CCCCOc1cc(O)c2c(c1)C(=O)c1cc(C(=O)O)cc(O)c1C2=O,inhibition,Homo sapiens,45%
same,residual activity,[1],55%
CCCCCCCCOc1cc(O)c2c(c1)C(=O)c1cc(C(=O)O)cc(O)c1C2=O,Activity,Mus musculus [4],16.79 mmol/L
same,Activity,Mus musculus [2],17.05 mmol/L
same,inhibition,Homo sapiens,60.6%
same,Activity,Mus musculus [5],7.03 mmol/L
same,Activity,Mus musculus [6],10.04 mmol/L
same,Activity,Mus musculus [3],12.03 mmol/L
same,Activity,Mus musculus [7],10.05 mmol/L
same,residual activity,[1],39.4%
CCCCCCCCCCCCCCCCOc1cc(O)c2c(c1)C(=O)c1cc(C(=O)O)cc(O)c1C2=O,inhibition,Homo sapiens,29.8%
same,residual activity,[1],70.2%
